Ends that are not written are not given here.
Target: T1, immobilized ELAM-1 (Homo sapiens, UniProt P16581)
T1 construct: truncated form comprising the complete extracellular domain (amino acids 1 through 554); made in house; released with phospholipase C
T1 sequence (P16581 22-554): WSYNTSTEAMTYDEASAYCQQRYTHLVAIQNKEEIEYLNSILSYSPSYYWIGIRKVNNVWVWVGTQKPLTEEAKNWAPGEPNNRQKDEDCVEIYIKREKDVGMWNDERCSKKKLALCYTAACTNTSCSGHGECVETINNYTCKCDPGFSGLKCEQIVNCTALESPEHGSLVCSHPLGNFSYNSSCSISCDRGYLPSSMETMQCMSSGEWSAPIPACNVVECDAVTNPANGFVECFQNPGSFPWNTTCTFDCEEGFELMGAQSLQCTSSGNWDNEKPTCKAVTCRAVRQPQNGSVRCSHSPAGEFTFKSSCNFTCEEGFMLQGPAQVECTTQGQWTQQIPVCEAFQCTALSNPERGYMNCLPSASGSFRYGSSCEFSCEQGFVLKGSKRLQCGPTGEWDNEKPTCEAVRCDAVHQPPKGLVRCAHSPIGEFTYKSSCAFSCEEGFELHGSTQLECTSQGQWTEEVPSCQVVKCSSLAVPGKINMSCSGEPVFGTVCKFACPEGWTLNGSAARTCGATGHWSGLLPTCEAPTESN
Experiment: cell-based
Type: cell-based
Description: By comparing test wells with control wells (no receptor), one can determine whether a peptide binds to ELAM-1 specifically. Peptides found to bind specifically to ELAM-1 were then synthesized as the free peptide (no phage) and tested in an HL60 cell adhesion competition assay. The competition assay was carried out similarly to the ELISA, except that labeled HL60 cells were added in addition to the peptide (the control wells were typically of at least two types: (1) no immobilized ELAM-1; and (2) no peptide; see the Examples). Peptides that block the binding of labeled HL60 cells ELAM-1 are preferred compounds of the invention. […] The assay requires HL60 cells labeled with tritiated thymidine. To label the cells, about 10 million HL60 cells are collected by centrifugation (2500 RPM for 3 minutes) and resuspended in 15 mL of DMEM/F12 plus 5% fetal calf serum containing 2 μCi/mL of tritiated thymidine (Amersham). The cells are then placed in a T75 flask and incubated at 37°C for 24 hours. The cells are then collected by centrifugation, washed twice with RPMI/HEPES/0.1% FCS, and resuspended in the same solution at a concentration of about one to two million cells per mL. […] After this incubation, aliquots were removed from each well and placed in scintillation vials; scintillation fluid was added to each vial; and the radioactivity in each aliquot was quantitated by LS counting. […]

## HITWDQLWNVMN
200000.0
  blocking of HL60 cell binding that occurred in the absence of added compound: over 80%
HL-60, at a concentration of 50 µM, tested from 0.5 to 100 µM, Figure 2, read-out: inhibition of binding of HL60 cells
  inhibition at 50 µM: ~50%

Source: EP0700301B1, “PEPTIDES AND COMPOUNDS THAT BIND TO ELAM-1” (AFFYMAX TECHNOLOGIES N.V., priority 1993, dated 1994)
